Laboratory results published in ChEMBL document CHEMBL1136335, “Structure elucidation of Sch 538415, a novel acyl carrier protein synthase inhibitor from a microorganism” (Bioorg Med Chem Lett, 2003).

Columns and labels:
[1] = In vitro inhibitory activity against bacterial Holo-[acyl-carrier-protein] synthase; parameters: species or system Staphylococcus aureus
Staphylococcus aureus = assay: Antibacterial activity against Staphylococcus aureus(FDA 209P strain) at a concentration of 5 ug; type: functional

IC50 [1]: 4.19 µM
SMILES: Cc1cc(=O)n(C)c2c1C(=O)c1c(C)cc(=O)n(C)c1C2=O [DIAZAANTHRAQUINONE]
Zone of inhibition (Staphylococcus aureus): 12 mm
